We go through five molecules from paper PMC5519633, “Endolysosomal targeting of a clinical chlorin photosensitiser for light-triggered delivery of nano-sized medicines” (Scientific Reports, 2017).

The conditions of data set [1]: standard reference compound in deuterated methanol; cited from earlier work. From the text:
For the determination of the singlet oxygen quantum yield (ΦΔ), deuterated methanol (CD3OD) was used since singlet oxygen has a relatively long lifetime in deuterated solvents. To confirm that the methanolic solutions of the conjugates and chlorin e6 at the concentrations studied were monomeric, absorption ...

The subject of data set [2] is MC28 cells. Briefly: Cellular uptake and subcellular localisation, confocal microscopy with LysoTracker Green. Type of data set: cell-based, rat. Conditions: same concentration and image intensity scale as the conjugates. Here is the method:
Cells were seeded in small Petri dishes, with a glass cover slip bottom window for use with an inverted microscope (Fluorodish, World Precision Inst. UK), and allowed to attach overnight. Cells were incubated for 24 h with the compounds (2.5 µM). Afterwards, culture medium was removed and replaced with fresh medium containing Lysotracker Green (100 nM) for 30 min before microscope imaging. Cells were washed 2 times with PBS and incubated with drug-free/phenol red-free medium for confocal imaging using an Olympus Laser scanning confocal microscope (FluoView FV1000, 60x magnification, NA 1.20, Olympus UK Ltd, Essex, UK). Fluorescence from the photosensitiser was recorded within the range of 620–720 nm using a 405 nm laser for the excitation. For LysoTracker Green, cells were illuminated at 488 nm and the fluorescence signal was recorded at 500–550 nm. Colocalisation analysis and image processing of the 16-bit images were performed with ImageJ software.

Data set [3] relates to human pharyngeal FaDu carcinoma cells. Conditions: cited from earlier work. An excerpt:
The lower uptake of the free chlorin is consistent with its lower PDT efficacy compared to the conjugates, as discussed below. […] Figure 3H and I show sequential images ...

Data set [4] concerns MC28 cells. In words: In vitro PDT phototoxicity, MTT assay. Particulars: 3.2 µM, 18 h incubation, 5 min illumination, 420 nm, 7 mW cm-2, MTT 48 h after light, three independent experiments. The data set is classed as cell-based, rat.
For data set [5] the following is noted: cited from earlier work. An excerpt:
The rationale for selecting chlorin e6 as the photosensitiser for this study on PCI was based on its favourable photosensitising properties but also on its poor lysosomal localisation[40] and bioavailability. The cellular uptake and membrane transport of chlorin e6 has been studied in detail in relation to its acid-base properties. The structure of chlorin e6 contains three adjacent carboxylic acid functions with pKa7.9–8.3[47]which are thus only partially ionised at physiological pH leading to poor aqueous solubility, which complicates systemic administration. At lower pH, as is typical for t ...

Data set [6] can be described thus: Singlet oxygen quantum yield by time-resolved 1270 nm phosphorescence in deuterated methanol. Conditions: aerated deuterated methanol (CD3OD); 532 nm laser excitation; absorbance matched to Rose Bengal reference; zero-time intercept analysis; estimated experimental error +/- 0.06. The data set is classed as physicochemical.
Protocol: For the singlet oxygen studies, absorption spectra of the compounds were measured using a Perkin-Elmer Lambda 25 UV/Vis spectrometer (Perkin-Elmer, Beaconsfield, UK) with quartz cuvettes. The singlet oxygen phosphorescence at 1270 nm was detected using time-resolved photon counting from aerated solutions in deuterated methanol (CD3OD) in quartz cuvettes. […] Integrated time-resolved phosphorescence traces were analysed using FluoFit software (PicoQuant GmbH, Berlin, Germany) to extract the singlet oxygen decay lifetime. […]
A short description of data set [7]: Absorption spectra as a function of concentration (test for aggregation). Type of data set: physicochemical. Particulars: methanolic solution; up to 8 μM; 398 nm for conjugates, 399 nm for chlorin e6. Here is the method:
For the determination of the singlet oxygen quantum yield (ΦΔ), deuterated methanol (CD3OD) was used since singlet oxygen has a relatively long lifetime in deuterated solvents. To confirm that the methanolic solutions of the conjugates and chlorin e6 at the concentrations studied were monomeric, absorption spectra were recorded as a function of concentration. […] The singlet oxygen quantum yields in deuterated methanol were measured using a standard reference compound, Rose Bengal (ΦΔ = 0.76)[43] using matched reference solution absorbances at the laser wavelength of 532 nm. Using standard zero-point intercept analysis of the singlet oxygen decays, the quantum yield of chlorin e6 was calculated as 0.67, which is in good agreement with the literature, as reviewed by Redmond et al.[43]. Morjzisova et al. reported the quantum yields of several chlorins in dimethylformamide and measured a value of 0.63 for chlorin e6, and observed a similar value for another clinical chlorin PDT photosensitiser, mTHPC (0.68) and disulfonated tetraphenyl chlorin (0.66)[44].
For the singlet oxygen studies, absorption spectra of the compounds were measured using a Perkin-Elmer Lambda 25 UV/Vis spectrometer (Perkin-Elmer, Beaconsfield, UK) with quartz cuvettes. […]

For data set [8] the following is noted: in dimethylformamide; cited from earlier work.
The test system of data set [9] is KB cells. Briefly: In vitro PDT/PCI phototoxicity with saporin, MTT assay. Type of data set: cell-based, human. Conditions: saporin 20 nM, without photosensitiser.

`O=C([O-])c1c(Cl)c(Cl)c(Cl)c(Cl)c1-c1c2cc(I)c(=O)c(I)c-2oc2c(I)c([O-])c(I)cc12.[Na+].[Na+]` [Rose Bengal]: the “singlet oxygen quantum yield (ΦΔ) of reference standard” value in [1] was 0.76.
Take `C=Cc1c(C)c2cc3nc(c(CC(=O)O)c4[nH]c(cc5nc(cc1[nH]2)C(C)=C5CC)c(C)c4C(=O)O)[C@@H](CCC(=O)O)[C@@H]3C` [chlorin e6]: in [2], the “cellular uptake, intracellular fluorescence relative to the conjugates” value is “much lower fluorescence”. For the same molecule, the “cellular uptake of free chlorin e6 compared to dendrimer conjugates of chlorin e6” value in [3] is listed as “an order of magnitude lower”. For the same molecule, the “loss of viability (PDT)” value in data set [4] was “less than 20%”. In addition, the “pKa of the three carboxylic acid functions” value in data set [5] was 7.9–8.3. In data set [6], the “singlet oxygen quantum yield (ΦΔ)” value is on record as 0.67. Also, the “peak absorbance of the Soret band versus concentration (monomeric or aggregated)” value in data set [7] is “linear”. Further, in data set [8], the “singlet oxygen quantum yield” value was 0.63.
With `Oc1cccc(-c2c3nc(c(-c4cccc(O)c4)c4ccc([nH]4)c(-c4cccc(O)c4)c4nc(c(-c5cccc(O)c5)c5ccc2[nH]5)CC4)C=C3)c1` [mTHPC], the “singlet oxygen quantum yield” value in data set [8] is 0.68.
For disulfonated tetraphenyl chlorin, the “singlet oxygen quantum yield” value in [8] was 0.66.
Consider saporin, for which, in [9], the “reduction in viability, saporin alone” value is reported as less than 20%.
